Measurements taken from US12582652B2, “3-(ethoxydifluoromethyl)-6-(5-fluoro-6-(2,2,2-trifluoroethoxy)pyridin-3-yl)-[1,2,4]triazolo[4,3-a]pyrazine as an ion channel modulator” (Praxis Precision Medicines, Inc., priority 2022, dated 2026).
Entries after “also recorded” stand apart in the source; their conditions may differ.

What was measured:
healthy participants [1] = assay: 2-part Phase 1 trial (28 days; OXC combination): qEEG and ASSR pharmacodynamics; assay type: in vivo, human; settings: Part A, 90 mg QD 28 days
Description: (§2) This was a 2-part randomized, placebo-controlled Phase 1 trial in healthy participants aged 18-55 years. […] PD effects were examined on quantitative EEG (qEEG; resting and vigilant conditions) and stimulated EEG using auditory steady state response (ASSR). A total of 48 participants were enrolled; Part A, n=30; Part B, n=18.

healthy participants [2] = assay: 2-part Phase 1 trial (28 days; OXC combination): safety and tolerability; assay type: in vivo, human
Description: as §2

human NaV1.6 = target: T1, human NaV1.6 (Homo sapiens, UniProt Q9UQD0); assay: Peak INa use-dependent block (UDB-10 Hz), PatchXpress patch clamp; assay type: cell-based
T1 construct: stably expressing either human NaV1.6 (NP_055006); expressed in transfected cells
T1 sequence (Q9UQD0 whole entry): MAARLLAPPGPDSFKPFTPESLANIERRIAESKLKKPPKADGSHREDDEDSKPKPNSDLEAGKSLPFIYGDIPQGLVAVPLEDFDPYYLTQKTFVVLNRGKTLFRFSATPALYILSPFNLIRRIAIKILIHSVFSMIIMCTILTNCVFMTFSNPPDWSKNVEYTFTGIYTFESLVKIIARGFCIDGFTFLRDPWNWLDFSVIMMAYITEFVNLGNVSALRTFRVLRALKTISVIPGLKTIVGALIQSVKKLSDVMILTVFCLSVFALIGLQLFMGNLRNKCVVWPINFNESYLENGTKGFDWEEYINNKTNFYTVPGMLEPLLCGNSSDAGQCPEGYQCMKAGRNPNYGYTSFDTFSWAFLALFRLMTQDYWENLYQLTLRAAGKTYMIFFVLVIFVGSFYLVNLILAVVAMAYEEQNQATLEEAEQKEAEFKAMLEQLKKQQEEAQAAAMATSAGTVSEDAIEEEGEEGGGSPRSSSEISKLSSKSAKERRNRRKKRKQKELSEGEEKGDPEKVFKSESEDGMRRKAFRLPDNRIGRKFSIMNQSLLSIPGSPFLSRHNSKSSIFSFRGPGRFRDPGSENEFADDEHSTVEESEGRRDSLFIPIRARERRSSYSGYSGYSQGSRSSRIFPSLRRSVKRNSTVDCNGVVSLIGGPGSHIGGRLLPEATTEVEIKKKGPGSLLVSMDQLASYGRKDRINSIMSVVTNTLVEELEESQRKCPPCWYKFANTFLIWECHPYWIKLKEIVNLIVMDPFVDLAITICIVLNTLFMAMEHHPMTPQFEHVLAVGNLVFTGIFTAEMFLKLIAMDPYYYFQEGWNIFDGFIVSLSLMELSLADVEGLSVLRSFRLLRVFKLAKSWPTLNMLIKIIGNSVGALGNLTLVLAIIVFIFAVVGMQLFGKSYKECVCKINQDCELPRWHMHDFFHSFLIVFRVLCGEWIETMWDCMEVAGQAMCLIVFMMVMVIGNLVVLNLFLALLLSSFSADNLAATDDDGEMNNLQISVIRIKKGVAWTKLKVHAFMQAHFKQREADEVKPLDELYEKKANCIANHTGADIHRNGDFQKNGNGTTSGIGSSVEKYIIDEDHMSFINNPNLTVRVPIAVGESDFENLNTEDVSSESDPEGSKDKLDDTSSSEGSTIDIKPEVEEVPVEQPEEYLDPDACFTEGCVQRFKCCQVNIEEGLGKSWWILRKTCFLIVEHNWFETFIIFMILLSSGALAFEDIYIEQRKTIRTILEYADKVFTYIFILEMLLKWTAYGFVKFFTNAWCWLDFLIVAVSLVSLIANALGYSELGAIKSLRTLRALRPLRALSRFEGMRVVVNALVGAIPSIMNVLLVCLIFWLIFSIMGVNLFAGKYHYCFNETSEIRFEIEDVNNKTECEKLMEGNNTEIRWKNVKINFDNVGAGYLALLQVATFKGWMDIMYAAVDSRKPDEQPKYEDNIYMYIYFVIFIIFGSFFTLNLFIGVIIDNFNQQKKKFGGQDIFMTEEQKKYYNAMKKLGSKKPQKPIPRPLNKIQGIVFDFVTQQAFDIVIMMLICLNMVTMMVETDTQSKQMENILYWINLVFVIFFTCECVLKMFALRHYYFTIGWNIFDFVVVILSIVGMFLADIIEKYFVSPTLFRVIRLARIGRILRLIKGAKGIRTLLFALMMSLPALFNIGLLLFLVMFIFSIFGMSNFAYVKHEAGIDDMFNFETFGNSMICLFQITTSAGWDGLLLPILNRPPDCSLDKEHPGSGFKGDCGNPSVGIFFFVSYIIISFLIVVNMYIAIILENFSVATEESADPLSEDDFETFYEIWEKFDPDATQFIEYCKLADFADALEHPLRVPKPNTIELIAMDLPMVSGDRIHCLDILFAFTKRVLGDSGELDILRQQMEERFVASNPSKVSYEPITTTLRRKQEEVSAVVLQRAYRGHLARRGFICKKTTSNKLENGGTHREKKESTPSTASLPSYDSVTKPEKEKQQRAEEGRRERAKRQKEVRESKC

healthy participants [3] = assay: Phase 1 SAD/MAD/food effect trial: safety and tolerability; assay type: in vivo, human
Description: (§1) This was a 3-part Phase 1 clinical trial in healthy participants aged 18-55 years. Parts A and B were randomized, placebo-controlled and evaluated the effects of single (2.5-150 mg) and multiple (30-120 mg, 14 days QD (every day)) ascending oral doses of Compound 1, respectively. Part C was an open-label, randomized, crossover design evaluating the PK of a single oral dose (90 mg) in fasted and fed states. In Parts A (n=64) and B (n=32), participants were randomized 3:1 to Compound 1 or placebo (n=8/cohort). In Part C (n=16), participants were randomized 1:1 to one of two treatment sequences receiving a single dose of 90 mg Compound 1 in the fed (following a high-fat/high calorie meal) or fasted (≥10 hours after the last, and 4 hours before the next, meal) state.

[4] = Compound 1 human pharmacokinetics as stated in trial rationale; assay type: in vivo; settings: predicted from current knowledge of pharmacokinetics
hNaV1.6 = target: T2, hNaV1.6 (Homo sapiens, UniProt Q9UQD0); assay: Steady-state inactivation and activation curves (V1/2 shift); assay type: cell-based; settings: for shift in V1/2 of activation curve: DMSO control −1.3 mV
T2 construct: stably expressing either human NaV1.6 (NP_055006); expressed in transfected cells
T2 sequence (Q9UQD0 whole entry): as above

[5] = 2-part Phase 1 trial (28 days; OXC combination): pharmacokinetics
Description: as §2

[6] = Phase 1 SAD/MAD/food effect trial: pharmacokinetics; assay type: in vivo, human
Description: as §1

healthy participants [7] = assay: Phase 1 SAD/MAD trial: EEG pharmacodynamics (ASSR, qEEG); assay type: in vivo, human; settings: for reduction from baseline in ASSR phase-locking factor (PLF): Day 14, 2 hours 35 minutes postdose
Description: as §1
In this clinical trial, the PD activity of Compound 1 was evaluated in healthy participants using electroencephalogram (EEG)-based auditory steady-state response (ASSR) measures and resting state EEG (qEEG)-based spectral power measures under eyes-open and eyes-closed conditions.

[8] = tested on: heterozygous Kcnc1 R320H mice; assay: Pentylenetetrazole (PTZ) induced seizure, Kcnc1 model; assay type: in vivo, mouse
Description: Pentylenetetrazole (PTZ), a GABA receptor antagonist, can be used to create a common, chemically-induced seizure model, a model of generalized seizure.
Mice were acclimated to experimental area for minimum 30 minutes before experimentation. All experiments were performed between 10:00 am and 12:30 pm. The treatment compounds and PTZ were always prepared fresh.
Mice were randomly assigned either to different doses of Compound 1 (10 mg/kg, 1 mg/kg, or 0.1 mg/kg) or a vehicle control containing 0.5% methylcellulose and 0.2% tween 80, and dosed via oral gavage (p.o). Compound 1 and the vehicle control were administered 60 minutes before the injection of PTZ.
PTZ (100 mg/kg) was dissolved in saline and administered subcutaneously (s.c) to the experimental mice. The latency to full tonic-clonic seizure with hind limb extension was measured. The animals were sacrificed either at the time of hind limb extension or 40 minutes after PTZ administration if no hind limb extension was recorded.
Data were analyzed using a Mantel-Cox log-rank test. Brain tissue and plasma were collected from some mice for each dose of Compound 1 at the PTZ endpoint for PK analysis.

[9] = Preliminary exposure data from first 12 participants (Example 9 study); assay type: in vivo, human

CCOC(F)(F)c1nnc2cnc(-c3cnc(OCC(F)(F)F)c(F)c3)cn12 [Compound 1, 3-(ethoxydifluoromethyl)-6-(5-fluoro-6-(2,2,2-trifluoroethoxy)pyridin-3-yl)-[1,2,4]triazolo[4,3-a]pyrazine]
qEEG (Delta and Theta power) and ASSR (PLF and Evoked Power) vs placebo (healthy participants [1]): Statistically significant differences
tolerability in healthy adults (healthy participants [2]; 90 mg, Part A): well tolerated
TEAEs mild in severity (healthy participants [2]; Part A): 71%
TEAEs moderate (healthy participants [2]; Part A): 29%
TEAEs severe (healthy participants [2]; Part A): 0%
number of TEAEs (healthy participants [2]; Part A): 35
participants with TEAEs (healthy participants [2]; Part A (n=30 enrolled)): 13
TEAEs mild or moderate (healthy participants [2]; Part A, 90 mg QD vs placebo): 100%
review of ALT/AST increases and rhabdomyolysis, causal association (healthy participants [2]; Part B): did not identify a causal association
TEAEs mild or moderate (healthy participants [2]; Part B, OXC + 120 mg Compound 1 vs OXC alone): 96%
TEAEs mild in severity (healthy participants [2]; Part B, both arms): 51%
TEAEs moderate (healthy participants [2]; Part B, both arms): 45%
TEAEs severe (healthy participants [2]; Part B, both arms): 4%
number of TEAEs (healthy participants [2]; Part B, both arms): 74
participants with TEAEs (healthy participants [2]; Part B, both arms (n=18 enrolled)): 16
safety findings in vital signs, physical exams, ECGs, C-SSRS (healthy participants [2]; Parts A and B): no clinically significant safety findings
Ratio to Peak INa (TB) (UDB-10 Hz) (human NaV1.6; hNaV1.6): 31
Ratio to Pers. INa (Peak INa UDB-10 Hz / persistent INa) (human NaV1.6; hNaV1.6): 2
IC50 (human NaV1.6; hNaV1.6, 10 Hz): 271 nM
Peak INa UDB-10 Hz maximum inhibition (human NaV1.6; hNaV1.6, 10 Hz): 75%
use-dependent block at stimulation frequency of 10 Hz (human NaV1.6; hNaV1.6, 10 Hz): concentration dependent inhibition
use-dependent block at increased frequencies (human NaV1.6; hNaV1.6, 10 Hz, 30 Hz or 50 Hz): significantly greater compared with CBZ
TEAEs that were mild (healthy participants [3]; healthy participants): > 92%
safety findings in vital signs, clinical laboratory results, physical exams, ECGs, C-SSRS (healthy participants [3]; healthy participants): no clinically significant safety findings
participants experiencing typical NaV blocker events (healthy participants [3]; more frequent at 120 mg and 150 mg): 34%
tolerability in healthy participants (healthy participants [3]; single doses up to 150 mg, up to 120 mg QD 14 days, 90 mg fed and fasted): well-tolerated; also recorded: well tolerated
time predicted to achieve 90% steady state [4]: about 6 weeks
shift in V1/2 of activation curve (hNaV1.6; 0.3 μmol/L): −2.3 mV
shift in V1/2 of activation curve (hNaV1.6; 1 μmol/L): −2.7 mV
shift in V1/2 of steady-state inactivation curve (hNaV1.6; 1 μmol/L, DMSO control −2.6 mV): −11.7 mV
approach to steady state ([5]; 90 mg QD for 28 days, Part A): approached steady state
increase in Compound 1 concentrations over human-equivalent dose required for efficacy in preclinical MES models ([5]; Part A, 90 mg QD): 13 fold
Compound 1 exposure with OXC coadministration ([5]; Part B, data not shown): did not appear to be altered
exposure over the evaluated dose range ([6]; healthy adults, oral, single 2.5-150 mg, multiple 30-120 mg QD): increased dose proportionally
increase in AUC, fed vs fasted state ([6]; single 90-mg dose): 14%
increase in Cmax, fed vs fasted state ([6]; single 90-mg dose): 9%
reduction from baseline in ASSR phase-locking factor (PLF) (healthy participants [7]; 90 mg QD): approximately 30%
reduction from baseline in ASSR phase-locking factor (PLF) (healthy participants [7]; 120 mg QD): ~60%
qEEG Delta (1.5-6 Hz) and Theta (6-8.5 Hz) band spectral power (healthy participants [7]; 120 mg single dose and 120 mg QD): Increases from baseline
ASSR-based absolute evoked gamma power vs placebo (healthy participants [7]; any Compound 1 dose level): No statistically significant differences
efficacy in KCNC1 R320H PTZ seizure model ([8]; 10 mg/kg p.o., 60 min before PTZ 100 mg/kg s.c.): highly efficacious
protection from hindlimb extension (FIG. 14D) ([8]; Kcnc1 DEE mouse model, PTZ): robust anticonvulsant activity
Compound 1 exposures on Day 1 (after single dose) [9]: above therapeutic range; also recorded: above predicted therapeutic levels
exposure after 28 days of once daily dosing and auto-titration [9]: approaching steady-state; also recorded: approaches steady state
